We go through 17 compounds from ChEMBL document CHEMBL5291721, “A preclinical secondary pharmacology resource illuminates target-adverse drug reaction associations of marketed drugs” (Nat Commun, 2023).

Test [1] has as its target T1, Muscarinic acetylcholine receptor M1 (Homo sapiens, UniProt P11229).
T1 sequence (P11229 whole entry): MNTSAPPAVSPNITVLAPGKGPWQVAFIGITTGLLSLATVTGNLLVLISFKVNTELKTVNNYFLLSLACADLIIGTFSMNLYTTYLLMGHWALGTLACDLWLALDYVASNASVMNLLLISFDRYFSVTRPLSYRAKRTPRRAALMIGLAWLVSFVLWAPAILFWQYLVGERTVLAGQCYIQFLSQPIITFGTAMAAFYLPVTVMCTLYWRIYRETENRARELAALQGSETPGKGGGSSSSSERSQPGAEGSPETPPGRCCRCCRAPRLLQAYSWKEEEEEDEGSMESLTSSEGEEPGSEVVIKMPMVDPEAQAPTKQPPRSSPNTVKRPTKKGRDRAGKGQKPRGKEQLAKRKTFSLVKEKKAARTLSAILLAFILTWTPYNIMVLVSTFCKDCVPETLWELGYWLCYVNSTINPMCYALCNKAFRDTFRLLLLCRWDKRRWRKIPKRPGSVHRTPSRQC
The format is functional, cell-based.

In test [2] the target is T2, Estrogen receptor (Homo sapiens, UniProt P03372).
T2 sequence (P03372 whole entry): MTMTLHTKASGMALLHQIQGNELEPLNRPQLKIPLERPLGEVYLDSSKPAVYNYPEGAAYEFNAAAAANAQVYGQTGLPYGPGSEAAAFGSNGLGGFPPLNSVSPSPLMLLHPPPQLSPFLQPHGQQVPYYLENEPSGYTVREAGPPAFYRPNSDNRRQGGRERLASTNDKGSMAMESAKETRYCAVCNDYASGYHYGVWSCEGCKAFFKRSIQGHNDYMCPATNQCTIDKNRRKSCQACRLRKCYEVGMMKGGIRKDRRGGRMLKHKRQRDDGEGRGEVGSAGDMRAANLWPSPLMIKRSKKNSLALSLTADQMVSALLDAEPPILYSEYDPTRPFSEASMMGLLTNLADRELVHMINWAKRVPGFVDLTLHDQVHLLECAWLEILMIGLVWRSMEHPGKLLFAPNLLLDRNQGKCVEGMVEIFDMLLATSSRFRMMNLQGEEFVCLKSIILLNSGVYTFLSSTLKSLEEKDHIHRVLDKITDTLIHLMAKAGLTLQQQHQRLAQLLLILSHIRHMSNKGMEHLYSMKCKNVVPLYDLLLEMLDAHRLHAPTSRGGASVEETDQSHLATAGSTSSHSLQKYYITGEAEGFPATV

In test [3] the target is T1, Muscarinic acetylcholine receptor M1. The format is functional, cell-based. The source holds these as a separate data set.
Test [4] addresses D(1A) dopamine receptor (Homo sapiens, UniProt P21728). In kind it is functional, cell-based.
The target in test [5] is Beta-2 adrenergic receptor (Homo sapiens, UniProt P07550).
Sequence of Beta-2 adrenergic receptor (P07550 whole entry): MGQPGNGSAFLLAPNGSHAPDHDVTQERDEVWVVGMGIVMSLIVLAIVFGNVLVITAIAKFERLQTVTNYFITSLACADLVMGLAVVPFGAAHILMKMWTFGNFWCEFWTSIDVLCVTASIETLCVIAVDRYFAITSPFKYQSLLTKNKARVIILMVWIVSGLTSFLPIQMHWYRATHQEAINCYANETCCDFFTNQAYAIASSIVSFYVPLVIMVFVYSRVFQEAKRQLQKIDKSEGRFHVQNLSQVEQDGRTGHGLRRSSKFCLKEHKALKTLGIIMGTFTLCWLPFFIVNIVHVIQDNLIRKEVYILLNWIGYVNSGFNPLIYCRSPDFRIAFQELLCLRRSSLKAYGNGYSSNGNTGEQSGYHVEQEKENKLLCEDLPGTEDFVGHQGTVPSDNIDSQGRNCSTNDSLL
Test [6] concerns the target T3, Gastrin/cholecystokinin type B receptor (Homo sapiens, UniProt P32239).
T3 sequence (P32239 whole entry): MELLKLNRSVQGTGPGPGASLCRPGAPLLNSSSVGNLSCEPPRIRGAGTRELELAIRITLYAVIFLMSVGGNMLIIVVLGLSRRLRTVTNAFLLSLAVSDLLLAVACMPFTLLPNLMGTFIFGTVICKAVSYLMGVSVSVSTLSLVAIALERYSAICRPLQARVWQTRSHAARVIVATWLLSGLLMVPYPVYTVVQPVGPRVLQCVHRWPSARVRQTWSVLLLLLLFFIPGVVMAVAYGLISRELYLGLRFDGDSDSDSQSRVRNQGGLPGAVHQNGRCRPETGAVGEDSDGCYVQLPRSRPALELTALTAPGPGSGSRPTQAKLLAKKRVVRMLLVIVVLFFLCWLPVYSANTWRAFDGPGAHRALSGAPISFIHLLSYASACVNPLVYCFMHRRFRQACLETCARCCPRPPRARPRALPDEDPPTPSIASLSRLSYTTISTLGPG

Test [7] deals with T4, 5-hydroxytryptamine receptor 2B (Homo sapiens, UniProt P41595). In kind it is functional, cell-based.
T4 sequence (P41595 whole entry): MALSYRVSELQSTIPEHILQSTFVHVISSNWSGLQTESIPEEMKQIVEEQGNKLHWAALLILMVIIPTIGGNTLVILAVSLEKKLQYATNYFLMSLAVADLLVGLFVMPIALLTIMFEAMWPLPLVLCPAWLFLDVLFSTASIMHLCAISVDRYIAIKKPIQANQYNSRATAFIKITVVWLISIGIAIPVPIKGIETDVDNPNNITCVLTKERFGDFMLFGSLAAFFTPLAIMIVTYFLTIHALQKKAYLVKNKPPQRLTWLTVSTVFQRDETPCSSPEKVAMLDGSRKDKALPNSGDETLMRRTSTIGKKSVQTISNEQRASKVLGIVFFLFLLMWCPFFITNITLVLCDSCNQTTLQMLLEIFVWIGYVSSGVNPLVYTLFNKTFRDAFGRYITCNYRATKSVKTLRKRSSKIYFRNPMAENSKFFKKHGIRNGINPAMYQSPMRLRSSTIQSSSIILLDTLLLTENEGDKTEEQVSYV
Test [8] addresses cGMP-inhibited 3',5'-cyclic phosphodiesterase 3A (Homo sapiens, UniProt Q14432). The format is functional.
Test [9] has as its target T5, Adenosine receptor A1 (Homo sapiens, UniProt P30542).
T5 sequence (P30542 whole entry): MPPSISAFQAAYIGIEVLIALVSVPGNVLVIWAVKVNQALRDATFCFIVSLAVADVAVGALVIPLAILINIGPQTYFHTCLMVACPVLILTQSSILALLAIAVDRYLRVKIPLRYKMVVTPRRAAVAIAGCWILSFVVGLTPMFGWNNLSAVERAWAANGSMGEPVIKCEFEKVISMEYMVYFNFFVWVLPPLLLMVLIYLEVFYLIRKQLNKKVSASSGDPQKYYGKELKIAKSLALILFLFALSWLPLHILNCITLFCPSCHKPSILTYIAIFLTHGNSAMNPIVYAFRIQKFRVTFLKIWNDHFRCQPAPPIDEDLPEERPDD

Test [10] addresses Beta-1 adrenergic receptor (Homo sapiens, UniProt P08588). In kind it is functional.
For test [11], the target named is T6, Equilibrative nucleoside transporter 1 (Homo sapiens, UniProt Q99808).
T6 sequence (Q99808 whole entry): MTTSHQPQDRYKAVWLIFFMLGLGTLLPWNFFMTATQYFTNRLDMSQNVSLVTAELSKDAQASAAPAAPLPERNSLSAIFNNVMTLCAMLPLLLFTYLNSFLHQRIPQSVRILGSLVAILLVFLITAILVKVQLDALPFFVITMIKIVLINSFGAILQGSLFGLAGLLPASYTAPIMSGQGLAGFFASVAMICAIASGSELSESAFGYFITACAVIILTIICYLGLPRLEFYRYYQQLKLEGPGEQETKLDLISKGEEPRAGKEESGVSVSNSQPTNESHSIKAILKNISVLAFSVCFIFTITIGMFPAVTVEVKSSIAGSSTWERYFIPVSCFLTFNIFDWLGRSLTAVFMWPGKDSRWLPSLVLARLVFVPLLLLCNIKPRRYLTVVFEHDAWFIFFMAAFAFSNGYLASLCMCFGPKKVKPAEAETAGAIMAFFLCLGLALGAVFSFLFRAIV

In test [12] the target is T4, 5-hydroxytryptamine receptor 2B. In kind it is functional, cell-based. This is another data set of the same source.

SMILES strings stand for the structures.
Further: assay procedure not described here.

Sequence of Beta-1 adrenergic receptor (P08588 whole entry): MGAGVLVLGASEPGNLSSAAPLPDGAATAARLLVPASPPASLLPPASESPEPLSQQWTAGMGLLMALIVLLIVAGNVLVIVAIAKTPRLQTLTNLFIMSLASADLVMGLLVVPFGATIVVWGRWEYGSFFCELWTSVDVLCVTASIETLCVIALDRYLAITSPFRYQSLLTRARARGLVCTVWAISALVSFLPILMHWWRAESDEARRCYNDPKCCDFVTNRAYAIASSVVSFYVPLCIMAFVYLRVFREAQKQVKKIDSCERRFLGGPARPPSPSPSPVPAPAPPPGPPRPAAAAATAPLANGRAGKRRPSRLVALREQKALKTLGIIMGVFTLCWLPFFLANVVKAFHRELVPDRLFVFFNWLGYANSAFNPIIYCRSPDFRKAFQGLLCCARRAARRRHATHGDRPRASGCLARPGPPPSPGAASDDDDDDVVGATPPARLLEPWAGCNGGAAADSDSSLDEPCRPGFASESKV
Sequence of cGMP-inhibited 3',5'-cyclic phosphodiesterase 3A (Q14432 whole entry): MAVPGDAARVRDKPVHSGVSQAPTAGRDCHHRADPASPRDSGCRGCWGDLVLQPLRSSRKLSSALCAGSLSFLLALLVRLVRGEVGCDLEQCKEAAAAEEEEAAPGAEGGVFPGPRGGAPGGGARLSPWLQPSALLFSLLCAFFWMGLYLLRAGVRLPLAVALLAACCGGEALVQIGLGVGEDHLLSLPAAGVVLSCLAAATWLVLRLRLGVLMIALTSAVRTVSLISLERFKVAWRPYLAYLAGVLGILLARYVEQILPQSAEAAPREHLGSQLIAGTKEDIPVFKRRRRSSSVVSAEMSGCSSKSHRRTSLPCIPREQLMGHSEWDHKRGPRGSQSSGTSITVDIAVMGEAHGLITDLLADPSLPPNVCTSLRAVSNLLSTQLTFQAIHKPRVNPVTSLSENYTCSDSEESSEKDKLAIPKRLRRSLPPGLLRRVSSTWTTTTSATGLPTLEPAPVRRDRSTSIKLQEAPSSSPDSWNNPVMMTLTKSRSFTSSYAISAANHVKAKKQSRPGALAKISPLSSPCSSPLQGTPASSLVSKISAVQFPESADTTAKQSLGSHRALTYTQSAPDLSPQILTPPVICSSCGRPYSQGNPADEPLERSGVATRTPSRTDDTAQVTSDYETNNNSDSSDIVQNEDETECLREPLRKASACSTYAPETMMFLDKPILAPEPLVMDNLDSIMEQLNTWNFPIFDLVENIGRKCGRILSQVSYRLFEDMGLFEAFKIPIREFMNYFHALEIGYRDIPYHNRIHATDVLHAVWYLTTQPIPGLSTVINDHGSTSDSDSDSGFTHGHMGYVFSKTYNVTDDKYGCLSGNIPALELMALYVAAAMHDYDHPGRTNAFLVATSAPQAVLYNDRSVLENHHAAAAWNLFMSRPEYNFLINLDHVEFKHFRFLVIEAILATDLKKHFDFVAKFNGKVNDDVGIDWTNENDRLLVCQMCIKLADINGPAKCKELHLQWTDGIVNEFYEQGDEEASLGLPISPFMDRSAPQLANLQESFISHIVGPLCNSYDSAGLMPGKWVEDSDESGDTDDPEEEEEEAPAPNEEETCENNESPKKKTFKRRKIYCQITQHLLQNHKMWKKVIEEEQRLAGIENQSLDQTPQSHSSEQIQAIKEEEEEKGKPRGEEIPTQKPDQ
Sequence of D(1A) dopamine receptor (P21728 whole entry): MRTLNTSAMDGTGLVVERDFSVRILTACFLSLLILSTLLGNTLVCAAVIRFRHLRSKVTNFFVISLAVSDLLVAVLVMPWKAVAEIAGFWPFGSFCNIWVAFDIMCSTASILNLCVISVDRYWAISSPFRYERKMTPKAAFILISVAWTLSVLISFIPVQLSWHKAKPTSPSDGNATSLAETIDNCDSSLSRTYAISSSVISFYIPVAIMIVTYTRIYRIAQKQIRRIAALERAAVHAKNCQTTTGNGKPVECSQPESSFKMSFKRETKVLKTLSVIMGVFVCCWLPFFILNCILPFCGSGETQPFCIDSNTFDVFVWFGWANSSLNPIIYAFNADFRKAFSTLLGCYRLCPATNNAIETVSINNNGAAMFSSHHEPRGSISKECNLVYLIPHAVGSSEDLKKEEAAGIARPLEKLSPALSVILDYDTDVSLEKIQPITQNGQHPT

As to `COc1c2ccoc2cc2oc(=O)ccc12` [BERGAPTEN], the AC50 in [1], in test [2] and in test [3] was > 30 µM throughout.
Consider `CNC(=O)Oc1cccc2ccccc12` [CARBARIL], for which the AC50 in [1], in [2] and in [3] was > 30 µM each time.
Turning to `CC[C@H](C)C[C@H](C)CCCCCCCCC(=O)N[C@H]1C[C@@H](O)[C@@H](NCCN)NC(=O)[C@@H]2[C@@H](O)CCN2C(=O)[C@H]([C@H](O)CCN)NC(=O)[C@H]([C@H](O)[C@@H](O)c2ccc(O)cc2)NC(=O)[C@@H]2C[C@@H](O)CN2C(=O)[C@H]([C@@H](C)O)NC1=O` [CASPOFUNGIN], the AC50 (commonly the concentration at which the activity in the assay is half-maximal) in [1] was 15.7 µM; in [2], 23.1 µM; in [3], > 30 µM.
In the same order, the values of `C/C=C/C/C=C/CCC(=O)[C@H]1O[C@H]1C(N)=O` [CERULENIN] are > 30 µM, > 30 µM and > 30 µM.
Take `N[C@@H](CS)C(=O)O` [CYSTEINE]: the AC50 in [1] and in [3] was > 30 µM each time.
As to `OC[C@H]1O[C@@H](c2ccc(Cl)c(Cc3ccc(O[C@H]4CCOC4)cc3)c2)[C@H](O)[C@@H](O)[C@@H]1O` [EMPAGLIFLOZIN], the AC50 in test [1], in [2] and in test [3] was > 30 µM throughout.
Regarding `CC(C)(O)CNc1nc(Nc2ccnc(C(F)(F)F)c2)nc(-c2cccc(C(F)(F)F)n2)n1` [ENASIDENIB], the AC50 in [1] is 23.9 µM; in test [2], > 30 µM; in [3], > 30 µM.
In the case of `CC(C)Cc1ccc(C(C)C(=O)O)cc1` (centres undefined) [IBUPROFEN], the AC50 is > 10 µM in [4]; > 10 µM in [5]; > 30 µM in [6]; > 10 µM in test [7]; > 30 µM in test [8]; > 30 µM in [9]. Besides, the AC50 in test [10] was > 10 µM; in test [2], > 30 µM; in test [11], > 30 µM; in test [12], > 10 µM.
For the compound `O=C1/C(=C2\Nc3ccc(S(=O)(=O)O)cc3C2=O)Nc2ccc(S(=O)(=O)O)cc21` [INDIGOTINDISULFONATE], the AC50 in test [1] and in test [3] was > 30 µM throughout.
As for `C=CCN1CC[C@]23CCCC[C@H]2[C@H]1Cc1ccc(O)cc13` [LEVALLORPHAN], the AC50 in test [1] and in test [3] was > 30 µM throughout.
On to `C[C@@H]1C[C@H]2[C@@H]3CCC4=CC(=O)C=C[C@]4(C)[C@@]3(Cl)[C@@H](O)C[C@]2(C)[C@@]1(OC(=O)c1ccco1)C(=O)CCl` [MOMETASONE FUROATE], for which the AC50 in test [1] and in test [3] was > 30 µM each time.
Consider `CCOC(=O)C1=C[C@@H](OC(CC)CC)[C@H](NC(C)=O)[C@@H](N)C1` [OSELTAMIVIR], for which the AC50 in [1] and in test [3] was > 30 µM throughout.
As for `CCn1cc(C(=O)O)c(=O)c2cc3c(cc21)OCO3` [OXOLINIC ACID], the AC50 in test [1] and in test [3] was > 30 µM each time.
With `N[C@@H](CO)C(=O)O` [SERINE], the AC50 in test [1] and in test [3] was > 30 µM in each case.
For `COc1cc2nc(N3CCN(C(=O)C4CCCO4)CC3)nc(N)c2cc1OC` (centres undefined) [TERAZOSIN], the AC50 in test [4] is > 10 µM; in test [5], > 10 µM; in test [6] it was > 30 µM; in test [7], > 10 µM; in [8] it was > 30 µM; in test [9] it was > 30 µM. Also, the AC50 in test [10] was > 10 µM; in test [2], > 30 µM; in test [11], > 30 µM; in test [12], > 10 µM.
`CC(=O)Oc1cc(C(F)(F)F)ccc1C(=O)O` [TRIFLUSAL]: the AC50 in test [1] and in test [3] was > 30 µM in each case.
For `CCCC(CCC)C(=O)O` [VALPROIC ACID], the AC50 in [4] was > 10 µM; in test [5], > 10 µM; in test [6] it was > 30 µM; in test [7], > 10 µM; in test [8], > 30 µM; in test [9], > 30 µM. For the same compound, the AC50 is > 10 µM in test [10], > 30 µM in [2], > 30 µM in [11] and > 10 µM in test [12].
